Assay results as given in patent US20040024024A1, “Aromatic sulfone hydroxamates and their use as protease inhibitors” (priority 2001, published 2004).
pKi: −log10 of the molar value.

The compounds below were run against T1, Human recombinant MMP-2 (Homo sapiens, UniProt P08253) (assay: In vitro MMP inhibition, Ki determination (fluorogenic substrate II)). Conditions: value in parentheses.
T1 construct: made in house; host or cells: MMP-2-transfected p2AHT2 cells
T1 sequence (P08253 110-660): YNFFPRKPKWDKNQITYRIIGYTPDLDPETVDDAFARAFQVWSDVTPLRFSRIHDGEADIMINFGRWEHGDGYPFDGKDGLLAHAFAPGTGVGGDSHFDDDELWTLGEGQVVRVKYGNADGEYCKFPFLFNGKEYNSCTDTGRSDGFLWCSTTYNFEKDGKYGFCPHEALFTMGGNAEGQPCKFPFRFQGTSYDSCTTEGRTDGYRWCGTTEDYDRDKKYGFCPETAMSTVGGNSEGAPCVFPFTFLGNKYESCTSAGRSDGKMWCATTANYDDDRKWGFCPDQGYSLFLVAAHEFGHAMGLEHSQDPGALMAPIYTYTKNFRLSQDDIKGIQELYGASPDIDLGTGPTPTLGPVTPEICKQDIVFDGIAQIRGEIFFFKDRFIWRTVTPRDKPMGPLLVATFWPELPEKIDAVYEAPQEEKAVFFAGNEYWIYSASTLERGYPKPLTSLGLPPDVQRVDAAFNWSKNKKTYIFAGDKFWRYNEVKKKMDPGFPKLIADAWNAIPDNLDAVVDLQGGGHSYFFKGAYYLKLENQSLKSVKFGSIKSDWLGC
Assay type: biochemical
Method: Several hydroxamates and salts thereof were analyzed in in vitro assays to determine their ability to inhibit the MMP cleavage of peptide substrates. Inhibition (Ki) and IC50 constants were calculated from the assayed hydroxamate-MMP interactions.
Human recombinant MMP-1, MMP-2, MMP-9, MMP-13, and MMP-14 were used in this assay. All enzymes were prepared in Assignee's laboratories following usual laboratory procedures. Protocols for the preparation and use of these enzymes are available in the scientific literature. See, e.g., Enzyme Nomenclature (Academic Press, San Diego, Calif., 1992) (and the citations therein). See also, Frije et al., J. Biol. Chem., 26(24), 16766-73 (1994).
The MMP-2 proenzyme was purified by gelatin Sepharose chromatography from MMP-2-transfected p2AHT2 cells provided by Dr. Gregory Goldberg of Washington University (St. Louis, Mo.).
All MMPs were activated using 4-aminophenylmercuric acetate (“APMA”, Sigma Chemical, St. Louis, Mo.) or trypsin. MMP-9 also was activated using human recombinant MMP-3 (purified in Assignee's laboratory following standard cloning and purification techniques).
Two fluorogenic, methoxycoumarin-containing polypeptide substrates were used in the MMP inhibition assays:
MCA-ArgProLeuGlyLeuDpaAlaArgGluArgNH2 (II)
Here, “Dpa” is 3-(2,4-dinitrophenyl)-L-2,3-diaminopropionyl group, and “MCA” is 7-methoxycoumarin-4-yl acetyl. Substrate (I) was purchased from Baychem (Redwood City, Calif.), and substrate II was prepared Assignee's laboratory. Substrate I was used in the IC50 determination assays, while substrate II was used in the Ki determination assays. In the absence of MMP inhibitory activity, either substrate is cleaved at the Gly-Leu peptide bond. This cleavage separates the highly fluorogenic peptide from the 2,4-dinitrophenyl quencher, thus resulting in increase of fluorescent intensity.
The stock solutions of the assayed hydroxamates (or salts thereof) were prepared in 1% dimethyl sulfoxide (DMSO). These stock solutions were diluted in Buffer A (100 mM Tris-HCl, 100 mM NaCl, 10 mM CaCl2, 0.05% polyoxyethylene 23 lauryl ether, pH 7.5) to obtain solutions with different hydroxamate concentrations, i.e., assay solutions with different concentrations of the assayed MMP inhibitory compound. The experiment controls contained the same amount of Buffer A/DMSO as the assayed sample, but contained no hydroxamate (or salt thereof).
The assays from which the Ki determinations were made were performed as follows. The assayed hydroxamate samples were incubated in separate wells of untreated white polystyrene plates (Nunc Nalgene International, Rochester, N.Y.), and analyzed on a Tecan SpectraFlour Plus plate reader. The excitation wavelength was 330 nm, and the emission wavelength—420 nm. All samples (assayed hydroxamates and controls) were incubated in separate plate wells at room temperature for 1 hr in the presence of 4 μM of MMP substrate (II). In the absence of MMP inhibitory activity, substrate II was cleaved at the Gly-Leu bond resulting in an increase of relative fluorescence. Inhibition was observed as a reduced rate of this increase in relative fluorescence. The various hydroxamates were analyzed using a single low enzyme concentration with a single substrate concentration fixed at or below the Km. This protocol is a modification of method by Knight et al., FEBS Lett., 296(3), 263-266 (1992). Apparent inhibitory constants were determined by non-linear regression of reaction velocity as a function of inhibitor and enzyme concentration using Morrison's equation, as described by Kuzmic, Anal. Biochem. 286, 45-50 (2000). […] Since the substrate concentration was chosen to be at or below the Km, the apparent Ki's from this analysis were reported as Ki's without correction for the influence of substrate.

Structure (SMILES) | pKi
O=C(NO)C1(S(=O)(=O)c2ccc(OCCCc3cncc(Br)c3)cc2)CCOCC1 [Example 522] | 7.49
O=C(NO)C1(S(=O)(=O)c2ccc(OCCCc3cncc(-c4ccc(F)cc4)c3)cc2)CCOCC1 [Example 523] | 6.71
O=C(NO)C1(S(=O)(=O)c2ccc(OCCCc3cncc(-c4ccccc4)c3)cc2)CCOCC1 [Example 524] | 7.29
O=C(COc1ccc(S(=O)(=O)C2(C(=O)NO)CCOCC2)cc1)c1cccc(-c2ccccc2)c1 [Example 563] | 7.15
O=C(CCCOc1ccc(S(=O)(=O)C2(C(=O)NO)CCOCC2)cc1)Nc1cccc(I)c1 [Example 570] | 8.00
O=C(NO)C1(S(=O)(=O)c2ccc(OCCCc3cccc(-n4ccnc4)c3)cc2)CCOCC1 [Example 574] | 6.95
O=C(NO)C1(S(=O)(=O)c2ccc(OCCCc3nc(-c4cccnc4)no3)cc2)CCOCC1 [Example 578] | 7.14
O=C(NO)C1(S(=O)(=O)c2ccc(OCCCc3nc(-c4ccccc4)no3)cc2)CCOCC1 [Example 584] | 7.68
O=C(NO)C1(S(=O)(=O)c2ccc(OCCCc3cc(-c4ccc(F)cc4F)cs3)cc2)CCOCC1 [Example 587] | 6.90
O=C(NO)C1(S(=O)(=O)c2ccc(OCCCc3cccc(-c4cccs4)c3)cc2)CCOCC1 [Example 595] | 6.23
O=C(Cc1csc2ccccc12)NCCOc1ccc(S(=O)(=O)C2(C(=O)NO)CCOCC2)cc1 [Example 596] | 7.95
O=C(NCCOc1ccc(S(=O)(=O)C2(C(=O)NO)CCOCC2)cc1)c1cc2ccccc2[nH]1 [Example 599] | 9.42
O=C(NO)C1(S(=O)(=O)c2ccc(OCCCc3cc(-c4ccc(OC(F)(F)F)cc4)cs3)cc2)CCOCC1 [Example 608] | 6.14
N#Cc1ccc(-c2cccc(CCCOc3ccc(S(=O)(=O)C4(C(=O)NO)CCOCC4)cc3)c2)cc1 [Example 624] | 6.21
O=C(NO)C1(S(=O)(=O)c2ccc(OCCCc3cccc(-c4ccc(C(F)(F)F)cc4)c3)cc2)CCOCC1 [Example 625] | 5.16
O=C(NO)C1(S(=O)(=O)c2ccc(OCCCc3cccc(-c4ccc([N+](=O)[O-])cc4)c3)cc2)CCOCC1 [Example 626] | 6.19
O=C(NO)C1(S(=O)(=O)c2ccc(OCCCc3cccc(-c4ccc5c(c4)OCCO5)c3)cc2)CCOCC1 [Example 627] | 5.40
O=C(NO)C1(S(=O)(=O)c2ccc(OCCCc3cccc(-c4ccc5c(c4)OCO5)c3)cc2)CCOCC1 [Example 628] | 5.56
O=C(NO)C1(S(=O)(=O)c2ccc(OCCCc3cccc(-c4ccc5ccccc5c4)c3)cc2)CCOCC1 [Example 629] | 5.99
O=C(NO)C1(S(=O)(=O)c2ccc(OCCCc3cccc(-c4ccc(F)cc4F)c3)cc2)CCOCC1 [Example 630] | 5.68
O=C(NO)C1(S(=O)(=O)c2ccc(OCCCc3cccc(-c4csc5ccccc45)c3)cc2)CCOCC1 [Example 631] | 5.30
O=C(NO)C1(S(=O)(=O)c2ccc(OCCCc3cccc(-c4ccsc4)c3)cc2)CCOCC1 [Example 632] | 6.55
O=C(NO)C1(S(=O)(=O)c2ccc(OCCCc3cccc(-c4cc5ccccc5s4)c3)cc2)CCOCC1 [Example 633] | 5.34
O=C(NO)C1(S(=O)(=O)c2ccc(OCCCc3cccc(-c4coc5ccccc45)c3)cc2)CCOCC1 [Example 634] | 6.01
C=Cc1ccc(-c2cccc(CCCOc3ccc(S(=O)(=O)C4(C(=O)NO)CCOCC4)cc3)c2)cc1 [Example 635] | 5.33
O=C(NO)C1(S(=O)(=O)c2ccc(OCCCc3cccc(-c4ccccc4O)c3)cc2)CCOCC1 [Example 636] | 6.28
O=C(NO)C1(S(=O)(=O)c2ccc(OCCCc3cccc(-c4ccoc4)c3)cc2)CCOCC1 [Example 637] | 6.30
O=C(NO)C1(S(=O)(=O)c2ccc(OCCCc3cccc(-c4cccc5ccccc45)c3)cc2)CCOCC1 [Example 638] | 5.09
Cc1ccc(-c2cccc(CCCOc3ccc(S(=O)(=O)C4(C(=O)NO)CCOCC4)cc3)c2)s1 [Example 639] | 6.30

Same assay, conditions: value in parenthesis

Structure (SMILES) | pKi
O=C(NO)C1(S(=O)(=O)c2ccc(OCCCc3ccnc(-c4ccccc4)c3)cc2)CCOCC1 [Example 197] | 7.51
O=C(CCCc1ccc(S(=O)(=O)C2(C(=O)NO)CCOCC2)cc1)c1cccc(-c2ccccc2)c1 [Example 219] | 6.98
O=C(CCCOc1ccc(S(=O)(=O)C2(C(=O)NO)CCOCC2)cc1)Nc1ccc(OC(F)(F)F)cc1 [Example 228] | 7.65
Cc1cc(OC(F)(F)F)ccc1NC(=O)CCCOc1ccc(S(=O)(=O)C2(C(=O)NO)CCOCC2)cc1 [Example 229] | 7.98
COc1ccc(/C(C#N)=C/CCCOc2ccc(S(=O)(=O)C3(C(=O)NO)CCN(C4CC4)CC3)cc2)cc1 [Example 233] | 7.22
CN(C(=O)CCCOc1ccc(S(=O)(=O)C2(C(=O)NO)CCOCC2)cc1)c1ccc(OC(F)(F)F)cc1 [Example 249] | 6.48
O=C(CCCOc1ccc(S(=O)(=O)C2(C(=O)NO)CCOCC2)cc1)Nc1ccc(OC(F)(F)F)cc1 [Example 250] | 8.51
Cc1cc(NC(=O)CCCOc2ccc(S(=O)(=O)C3(C(=O)NO)CCOCC3)cc2)ccc1OC(C)C [Example 290] | 6.00
